Laboratory results taken from patent US20260035643A1, “PHYSIOLOGIC AIRWAY MUCOSA AND PARENCHYMA BIOREACTOR AND EX VIVO WHOLE LUNG MODEL OF CYSTIC FIBROSIS FOR DISEASE MODELING AND THERAPEUTIC SCREENING” (The Trustees of Columbia University in the City of New York, priority 2023, published 2026).

Assays:
human lungs = assay: Xenogeneic cross-circulation support of human lungs with porcine host; settings: added to the immunosuppressive therapy, human lungs on xenogeneic cross-circulation
Excerpt: Preliminary Results: We support human lungs utilizing EVLP and a xenogeneic cross-circulation platform. […] With the addition of cobra venom factor to the immunosuppressive therapy, the risk of acute rejection was mitigated.

[1] = test system: tight junctions (TJs) of the airway epithelium; settings: rat trachea lumen, 10 mM EDTA for 30 min, vs native
Excerpt: Quantification of airway epithelium integrity via bioimpedance measurement: To investigate the biophysical integrity of the airway epithelium nondestructively (FIG. 16), we created a platform that allowed quantification of the bioelectrical impedance (bioimpedance) of the airway tissue (FIG. 16A-B). This platform utilizes four electrode probes to measure the electrical properties of the tissue (FIG. 16C). During measurements, alternating electrical current (AC) at various frequencies (20 Hz-135 kHz) and 100 μA of magnitude were injected into the tissue using two current carrying electrodes (CC1 and CC2), while two voltage pick-up electrodes (PU1 and PU2) measured the potential distribution (FIG. 16C). The data were analyzed using the Cole model that describes the biological tissue as a combination of a resistor (R) and a constant phase element (CPE) (FIG. 16D, i).

cobra venom factor
risk of acute rejection (human lungs): mitigated

O=C(O)CN(CCN(CC(=O)O)CC(=O)O)CC(=O)O [EDTA, ethylenediaminetetraacetic acid]
bioimpedance of treated airway tissue [1]: reduced impedance
